Some test systems named below: CAKI-1 renal; EKVX NSCLC; COLO 205 colon; HL-60(TB) leukemia; NCI-H226 lung; IGROV1 ovarian; MDA-N; SK-MEL-5 melanoma; RPMI-8226 leukemia; MDA-MB-231 breast.
Test in all cases: NCI anticancer screen, dose series, 48 h

Molecules are shown by their SMILES.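 Each compound was tested at five concentrations against cells in 96-well plates for 48 hours. TGI: total growth inhibition.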

In the case of `Cn1c2ccc(F)cc2c2ccc3c(c21)C(=O)C=CC3=O`, the TGI was 11.8 µM in the assay on CAKI-1 renal; 37.9 µM in the assay with EKVX NSCLC; 21.6 µM with COLO 205 colon; 2 µM in the assay with HL-60(TB) leukemia; over 91.3 µM with NCI-H226 lung; 39 µM with IGROV1 ovarian. In addition, the TGI in the assay with MDA-N worked out at 27.7 µM; in the assay on SK-MEL-5 melanoma, 56.4 µM; in the assay on RPMI-8226 leukemia, 33.4 µM; with MDA-MB-231 breast, 16.5 µM.
Consider `CC(=O)O[C@H]1C(=O)[C@@]2(C)[C@H]([C@H](OC(=O)c3ccccc3)[C@]3(O)C[C@H](OC(=O)[C@H](O)[C@@H](NC(=O)c4ccccc4)c4ccc5ccccc5c4)C(C)=C1C3(C)C)[C@]1(OC(C)=O)CO[C@@H]1C[C@@H]2O`, for which the TGI with CAKI-1 renal is over 41 µM; in the assay on EKVX NSCLC, over 50 µM; in the assay on COLO 205 colon it was 0.319 µM; with HL-60(TB) leukemia, 0.0327 µM; in the assay on IGROV1 ovarian, over 42.3 µM; in the assay on MDA-N it was 0.0202 µM. Further, the TGI in the assay on SK-MEL-5 melanoma is 12.9 µM; with RPMI-8226 leukemia it was 1.87 µM; with MDA-MB-231 breast it was 1.8 µM.
As to `O=C1/C(=C/c2ccc(Cl)cc2)Oc2cc(O)ccc21`, the TGI was 94.3 µM with EKVX NSCLC; over 100 µM with COLO 205 colon; 34.9 µM with HL-60(TB) leukemia; 62.3 µM with NCI-H226 lung; over 100 µM in the assay with IGROV1 ovarian; over 100 µM with MDA-N. Also, the TGI with SK-MEL-5 melanoma was 51.5 µM; in the assay with RPMI-8226 leukemia, over 100 µM; in the assay on MDA-MB-231 breast, over 100 µM.
For `CCOC(=O)/C=C(/C(=O)OCC)n1cc(C)c(=O)n(Cc2cnnn2COCCOC(C)=O)c1=O`, the TGI with CAKI-1 renal amounted to 11 µM; in the assay on EKVX NSCLC, 29.3 µM; with COLO 205 colon it was 11.8 µM; in the assay with HL-60(TB) leukemia, 13.5 µM; in the assay with NCI-H226 lung it was 28.7 µM; in the assay with IGROV1 ovarian, 32.7 µM. The TGI with MDA-N was found to be 48.5 µM; in the assay on SK-MEL-5 melanoma it was 51.5 µM; in the assay with RPMI-8226 leukemia, 23.8 µM; with MDA-MB-231 breast, 36.1 µM.
As for `CCOC(=O)c1c(NS(=O)(=O)c2ccc(C)cc2)sc2c1CCCC2`, the TGI in the assay on CAKI-1 renal was over 100 µM; in the assay on EKVX NSCLC, 98.7 µM; with COLO 205 colon, 37.9 µM; in the assay with HL-60(TB) leukemia it was over 100 µM; with NCI-H226 lung, over 100 µM; with IGROV1 ovarian, over 100 µM. For the same compound, the TGI is over 100 µM with MDA-N, over 100 µM in the assay on SK-MEL-5 melanoma, 45.9 µM with RPMI-8226 leukemia and 72.8 µM in the assay on MDA-MB-231 breast.
For the compound `CC(C)C(Nc1ncnc2nc[nH]c12)C(=O)O` (configuration not stated), the TGI with CAKI-1 renal, with EKVX NSCLC, in the assay on COLO 205 colon, with HL-60(TB) leukemia, in the assay on NCI-H226 lung and with IGROV1 ovarian was over 100 µM throughout. Further, the TGI in the assay on MDA-N, in the assay on SK-MEL-5 melanoma, in the assay on RPMI-8226 leukemia and with MDA-MB-231 breast was over 100 µM each time.
In the case of `O=C(CCBr)N1CCN(C(=O)CCBr)CC1`, the TGI in the assay on CAKI-1 renal came to 168 µM; in the assay with EKVX NSCLC, 212 µM; in the assay on COLO 205 colon, 225 µM; in the assay with HL-60(TB) leukemia, 206 µM; in the assay on NCI-H226 lung it was 201 µM; in the assay with IGROV1 ovarian, 245 µM. Further, the TGI in the assay with MDA-N is 225 µM; in the assay on SK-MEL-5 melanoma, 149 µM; with RPMI-8226 leukemia, 394 µM; in the assay with MDA-MB-231 breast, 242 µM.
As for `CSc1ncc2c(n1)-c1ccccc1OC2N1CCOCC1` (configuration not stated), the TGI in the assay on CAKI-1 renal is over 100 µM; in the assay on EKVX NSCLC it was over 100 µM; with COLO 205 colon, over 100 µM; with HL-60(TB) leukemia, 83.9 µM; with NCI-H226 lung, over 100 µM; in the assay with IGROV1 ovarian it was over 100 µM. Besides, the TGI with MDA-N, with SK-MEL-5 melanoma, with RPMI-8226 leukemia and in the assay on MDA-MB-231 breast was over 100 µM in each case.
In the case of `CC(=O)C1=C(C)O[C@@H]2O[C@H](COCc3ccccc3)[C@@H](OCc3ccccc3)[C@H](O)[C@@H]2S1`, the TGI was over 100 µM in the assay on CAKI-1 renal; 82.8 µM in the assay on EKVX NSCLC; 54.5 µM in the assay on COLO 205 colon; 39.7 µM in the assay with HL-60(TB) leukemia; 48.6 µM in the assay on NCI-H226 lung; 40.9 µM in the assay on IGROV1 ovarian. The TGI in the assay on MDA-N is 51.7 µM; in the assay with SK-MEL-5 melanoma, 32.2 µM; in the assay on RPMI-8226 leukemia, 42.6 µM; in the assay on MDA-MB-231 breast it was 40.1 µM.
Consider `CC#C[C@]1(O)CCC2[C@@H]3CCC4=CC(=O)CCC4=C3[C@@H](c3ccc(N(C)C)cc3)C[C@@]21C` (some centres not stated), for which the TGI amounted to 33 µM in the assay on CAKI-1 renal; 53 µM in the assay on EKVX NSCLC; 24.1 µM with COLO 205 colon; 38 µM in the assay on HL-60(TB) leukemia; 49.3 µM in the assay with MDA-N; 24.6 µM in the assay on SK-MEL-5 melanoma. Further, the values for the TGI in the assay on RPMI-8226 leukemia and in the assay with MDA-MB-231 breast were 7.15 µM and 35.4 µM, respectively.
Consider `CCn1c2nc(=O)n(CCCCCCCCSC(c3ccccc3)(c3ccccc3)c3ccccc3)c(=O)c-2nc2ccccc21`, for which the TGI with CAKI-1 renal is over 100 µM; in the assay with EKVX NSCLC it was over 100 µM; with HL-60(TB) leukemia, 6.51 µM; with NCI-H226 lung, over 100 µM; with IGROV1 ovarian, over 100 µM; with MDA-N, over 100 µM. The TGI was 22.9 µM with SK-MEL-5 melanoma, over 100 µM in the assay on RPMI-8226 leukemia and over 100 µM in the assay on MDA-MB-231 breast.
With `Cc1ccc(/C=C/C(=O)Oc2ccc(/C=C3\CCC/C(=C\c4ccc(OC(=O)/C=C/c5ccc(C)cc5)cc4)C3=O)cc2)cc1`, the TGI in the assay on CAKI-1 renal, with EKVX NSCLC, in the assay on COLO 205 colon, with HL-60(TB) leukemia, in the assay on MDA-N and with SK-MEL-5 melanoma was over 100 µM each time. Moreover, the TGI in the assay on RPMI-8226 leukemia and with MDA-MB-231 breast was over 100 µM throughout.
As for `CC(C)(C)NC1=NC(C(F)(F)F)(C(F)(F)F)NC(=O)N1`, the TGI with CAKI-1 renal is over 100 µM; with EKVX NSCLC, over 100 µM; in the assay with HL-60(TB) leukemia, 59.6 µM; in the assay with NCI-H226 lung, over 100 µM; in the assay with IGROV1 ovarian, over 100 µM; in the assay on MDA-N, over 100 µM. Besides, the TGI with SK-MEL-5 melanoma was 80.5 µM; in the assay on RPMI-8226 leukemia it was over 100 µM; in the assay with MDA-MB-231 breast, over 100 µM.
